{"source": "paper doi:10.1101/2020.05.01.070730v2", "about": "(biorxiv, 2021)", "target": "MutS (Pseudomonas aeruginosa, UniProt Q9HY08)", "sequence (Q9HY08 whole entry)": "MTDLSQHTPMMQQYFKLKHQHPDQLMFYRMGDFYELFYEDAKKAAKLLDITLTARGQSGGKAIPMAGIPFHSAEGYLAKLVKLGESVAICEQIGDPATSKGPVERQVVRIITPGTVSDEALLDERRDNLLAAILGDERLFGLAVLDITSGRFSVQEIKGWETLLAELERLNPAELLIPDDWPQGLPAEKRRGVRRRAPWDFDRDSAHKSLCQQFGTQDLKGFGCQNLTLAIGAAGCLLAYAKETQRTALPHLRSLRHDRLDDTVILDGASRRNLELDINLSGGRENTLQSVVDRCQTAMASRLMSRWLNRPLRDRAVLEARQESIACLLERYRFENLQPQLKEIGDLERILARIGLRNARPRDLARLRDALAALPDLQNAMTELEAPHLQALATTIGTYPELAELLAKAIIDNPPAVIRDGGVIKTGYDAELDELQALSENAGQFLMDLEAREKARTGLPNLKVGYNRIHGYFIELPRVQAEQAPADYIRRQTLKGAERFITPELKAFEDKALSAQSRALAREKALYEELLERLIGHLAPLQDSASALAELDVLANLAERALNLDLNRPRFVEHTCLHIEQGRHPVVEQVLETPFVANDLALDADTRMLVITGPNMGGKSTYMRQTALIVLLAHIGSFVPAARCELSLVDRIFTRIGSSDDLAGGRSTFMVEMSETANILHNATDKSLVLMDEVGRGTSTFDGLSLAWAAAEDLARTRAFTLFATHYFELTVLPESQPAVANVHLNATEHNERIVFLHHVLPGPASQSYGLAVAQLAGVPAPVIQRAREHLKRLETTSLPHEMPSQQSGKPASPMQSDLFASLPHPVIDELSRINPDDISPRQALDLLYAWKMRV", "assay": "biochemical"}
{"smiles": "Nc1ncnc2c1ncn2[C@@H]1O[C@H](COP(=O)(O)OP(=O)(O)OP(=O)(O)O)[C@@H](O)[C@H]1O", "note": "[ATP]", "values": [{"measurement": "EC50", "result": "618 ± 49", "unit": "µM"}]}
